Test results from patent publication EP4692090A1 (Shanghai Fosun Pharmaceutical (Group) Co., Ltd., priority 2023, dated 2024).
pIC50: −log10 of the molar value. Like-named read-outs stand apart in the source and are kept apart here.

Tests used:
LoVo cells = assay: LoVo cell proliferation assay (CellTiter-Glo); assay type: cell-based; settings: Homo sapiens, LoVo, 120 h, maximum concentration 10 µM, 9 concentrations; for pIC50: LoVo cells, 2,000 cells per well, 5 days incubation, CellTiter-Glo, read-out: LoVo IC50; for IC50: read-out: LoVo IC50 (nM), LoVo cells, 2,000 cells per well, 5 days incubation, CellTiter-Glo
Method in brief: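 LoVo cells, 2,000 per well, were treated after overnight attachment with 9-point 3-fold dilutions from 10 µM for 5 days at 37 °C. Viability was read by CellTiter-Glo luminescence. Inhibition % was taken relative to DMSO control, and IC50 came from the concentration–inhibition curve.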

ATR kinase = biological target: T1, ATR kinase (Homo sapiens, UniProt Q13535); assay: Inhibitory effect on ATR kinase activity (Caliper mobility shift, FAM-labeled RAD17 peptide substrate); assay type: biochemical
T1 construct: purchased Eurofins 14-953
Method in brief: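 Caliper mobility-shift assay with 1 nM ATR, FAM-labeled RAD17 peptide […] and 5 mM ATP in HEPES pH 7.5 with 10 mM MnCl2, run 3 h at 28 °C and stopped with EDTA. Compounds were tested in 10-point 3-fold dilutions from 1 µM. IC50 was fitted from % inhibition of substrate conversion versus blank control.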

[1] = 1 nM ATR kinase (Eurofins), 28°C for 3 hours, maximum concentration 1 µM, 10 concentrations, read-out: ATR kinase IC50
[2] = read-out: ATR kinase IC50, 1 nM ATR kinase (Eurofins), 28°C for 3 hours, maximum concentration 1 µM, 10 concentrations

T1 sequence (Q13535 whole entry): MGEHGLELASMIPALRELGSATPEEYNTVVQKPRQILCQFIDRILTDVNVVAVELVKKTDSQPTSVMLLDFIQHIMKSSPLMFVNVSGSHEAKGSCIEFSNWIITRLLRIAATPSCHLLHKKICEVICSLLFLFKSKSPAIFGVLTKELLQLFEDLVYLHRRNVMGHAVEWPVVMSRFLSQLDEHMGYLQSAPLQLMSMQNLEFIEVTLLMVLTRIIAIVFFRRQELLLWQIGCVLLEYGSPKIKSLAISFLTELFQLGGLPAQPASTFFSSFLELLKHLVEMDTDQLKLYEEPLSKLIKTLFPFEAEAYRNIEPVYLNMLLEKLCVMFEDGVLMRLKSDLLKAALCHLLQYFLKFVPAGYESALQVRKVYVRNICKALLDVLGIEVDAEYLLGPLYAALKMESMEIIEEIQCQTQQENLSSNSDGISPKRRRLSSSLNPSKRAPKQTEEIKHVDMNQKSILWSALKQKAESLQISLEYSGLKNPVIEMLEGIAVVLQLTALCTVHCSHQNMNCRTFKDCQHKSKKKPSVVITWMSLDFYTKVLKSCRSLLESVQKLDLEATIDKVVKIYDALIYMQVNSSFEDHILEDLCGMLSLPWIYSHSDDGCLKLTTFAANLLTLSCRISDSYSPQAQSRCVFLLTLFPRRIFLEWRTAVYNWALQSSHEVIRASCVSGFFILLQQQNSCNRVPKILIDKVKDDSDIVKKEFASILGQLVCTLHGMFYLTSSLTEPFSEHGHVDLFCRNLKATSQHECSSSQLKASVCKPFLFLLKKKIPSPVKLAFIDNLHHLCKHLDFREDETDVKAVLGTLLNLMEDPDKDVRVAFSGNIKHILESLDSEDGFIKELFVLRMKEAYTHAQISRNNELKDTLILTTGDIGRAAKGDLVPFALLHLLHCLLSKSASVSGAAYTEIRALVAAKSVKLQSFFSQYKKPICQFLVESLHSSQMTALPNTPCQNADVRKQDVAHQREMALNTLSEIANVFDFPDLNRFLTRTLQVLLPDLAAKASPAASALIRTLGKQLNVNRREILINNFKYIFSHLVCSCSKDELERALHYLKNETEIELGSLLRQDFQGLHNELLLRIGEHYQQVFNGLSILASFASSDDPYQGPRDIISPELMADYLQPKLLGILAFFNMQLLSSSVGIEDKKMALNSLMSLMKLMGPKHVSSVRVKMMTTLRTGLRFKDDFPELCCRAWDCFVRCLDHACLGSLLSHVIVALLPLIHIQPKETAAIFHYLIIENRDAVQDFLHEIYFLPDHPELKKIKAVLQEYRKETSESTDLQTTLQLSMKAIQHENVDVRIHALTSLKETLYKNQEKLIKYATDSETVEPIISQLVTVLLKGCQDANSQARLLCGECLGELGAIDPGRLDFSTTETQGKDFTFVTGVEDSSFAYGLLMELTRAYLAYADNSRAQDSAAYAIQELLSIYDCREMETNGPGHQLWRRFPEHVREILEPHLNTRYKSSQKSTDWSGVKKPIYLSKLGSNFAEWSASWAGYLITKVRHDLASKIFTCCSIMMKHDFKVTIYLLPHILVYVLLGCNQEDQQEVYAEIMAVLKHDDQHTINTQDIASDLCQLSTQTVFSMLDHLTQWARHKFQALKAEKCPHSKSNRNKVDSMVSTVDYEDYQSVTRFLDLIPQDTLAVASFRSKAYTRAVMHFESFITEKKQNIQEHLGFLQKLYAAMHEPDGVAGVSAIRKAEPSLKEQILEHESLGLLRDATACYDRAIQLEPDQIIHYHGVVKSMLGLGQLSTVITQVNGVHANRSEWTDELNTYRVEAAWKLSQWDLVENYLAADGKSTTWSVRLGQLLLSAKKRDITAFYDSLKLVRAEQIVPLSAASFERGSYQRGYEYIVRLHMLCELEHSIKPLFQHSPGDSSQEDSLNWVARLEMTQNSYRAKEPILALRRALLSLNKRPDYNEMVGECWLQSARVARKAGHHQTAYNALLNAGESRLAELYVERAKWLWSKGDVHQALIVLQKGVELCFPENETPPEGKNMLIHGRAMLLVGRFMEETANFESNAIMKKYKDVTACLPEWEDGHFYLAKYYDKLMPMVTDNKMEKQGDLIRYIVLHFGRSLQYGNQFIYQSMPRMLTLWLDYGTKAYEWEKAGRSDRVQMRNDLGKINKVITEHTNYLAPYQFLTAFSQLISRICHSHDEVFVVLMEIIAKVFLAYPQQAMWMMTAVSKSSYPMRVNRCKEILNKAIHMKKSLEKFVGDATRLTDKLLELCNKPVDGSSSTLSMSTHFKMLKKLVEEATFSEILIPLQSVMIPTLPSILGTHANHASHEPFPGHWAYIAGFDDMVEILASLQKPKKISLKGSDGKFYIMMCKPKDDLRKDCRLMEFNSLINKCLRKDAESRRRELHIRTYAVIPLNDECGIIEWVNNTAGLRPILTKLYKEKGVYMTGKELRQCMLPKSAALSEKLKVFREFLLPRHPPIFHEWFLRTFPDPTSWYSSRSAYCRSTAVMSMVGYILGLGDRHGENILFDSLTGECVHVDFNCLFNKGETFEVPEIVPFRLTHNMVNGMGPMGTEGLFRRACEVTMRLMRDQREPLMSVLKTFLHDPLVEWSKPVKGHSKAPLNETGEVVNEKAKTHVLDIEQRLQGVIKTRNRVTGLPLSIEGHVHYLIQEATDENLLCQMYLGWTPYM
T1 sequence (Q8WXE1 whole entry partner): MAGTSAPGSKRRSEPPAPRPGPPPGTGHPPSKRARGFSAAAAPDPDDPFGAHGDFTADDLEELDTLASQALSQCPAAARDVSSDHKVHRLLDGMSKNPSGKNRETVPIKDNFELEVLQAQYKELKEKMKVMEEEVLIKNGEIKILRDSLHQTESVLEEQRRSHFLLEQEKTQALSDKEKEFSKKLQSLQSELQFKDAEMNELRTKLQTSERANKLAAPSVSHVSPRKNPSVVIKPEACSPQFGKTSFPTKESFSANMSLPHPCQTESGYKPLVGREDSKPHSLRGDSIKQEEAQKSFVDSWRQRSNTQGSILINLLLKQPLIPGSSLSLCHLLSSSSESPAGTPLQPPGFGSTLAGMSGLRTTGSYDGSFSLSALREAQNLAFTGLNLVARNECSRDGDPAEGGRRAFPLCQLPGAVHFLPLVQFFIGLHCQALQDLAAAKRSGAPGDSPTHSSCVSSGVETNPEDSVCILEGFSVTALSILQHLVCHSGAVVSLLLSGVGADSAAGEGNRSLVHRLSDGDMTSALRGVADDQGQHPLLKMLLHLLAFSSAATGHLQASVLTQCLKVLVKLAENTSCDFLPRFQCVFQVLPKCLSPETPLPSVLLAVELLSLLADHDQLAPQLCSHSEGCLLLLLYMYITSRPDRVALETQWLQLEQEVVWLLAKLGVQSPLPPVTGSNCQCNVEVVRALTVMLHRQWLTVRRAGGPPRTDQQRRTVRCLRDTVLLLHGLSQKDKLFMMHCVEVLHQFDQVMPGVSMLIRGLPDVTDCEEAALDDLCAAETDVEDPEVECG

Compound	pIC50 (LoVo cells)	pIC50 (ATR kinase; [1])	IC50 (LoVo cells) [nM]	pIC50 (ATR kinase; [2])
C[C@@H]1COCCN1c1cc2c3c(n1)c(-c1cc[nH]n1)nn3CCN(C1CC(F)(F)C1)C2 [Compound 52, (R)-4-(7-(3,3-difluorocyclobutyl)-2-(1H-pyrazol-3-yl)-6,7,8,9-tetrahydro-1,3,7,9a-tetraazabenzo[cd]azulen-4-yl)-3-methylmorpholine]	< 6.00	7.00 to 8.00	–	–
C[C@@H]1COCCN1c1cc2c3c(n1)c(-c1cc[nH]n1)nn3CCN(C(=O)C1CC(F)(F)C1)C2 [Compound 53, (R)-(3,3-difluorocyclobutyl)(4-(3-methylmorpholino)-2-(1H-pyrazol-3-yl)-8,9-dihydro-1,3,7,9a-tetraazabenzo[cd]azulene-7(6H)-yl)methanone]	< 6.00	7.00 to 8.00	–	–
C[C@@H]1COCCN1c1cc2c3c(n1)c(-c1cc[nH]n1)nn3CCN(C(=O)C1CC1)C2 [Compound 54, (R)-cyclopropyl(4-(3-methylmorpholino)-2-(1H-pyrazol-3-yl)-8,9-dihydro-1,3,7,9a-tetraazabenzo[cd]azulene-7(6H)-yl)methanone]	6.00 to 7.00	7.00 to 8.00	–	–
C[C@@H]1COCCN1c1cc2c3c(n1)c(-c1cc[nH]n1)nn3CCN(S(C)(=O)=O)C2 [Compound 55, (R)-3-methyl-4-(7-(methylsulfonyl)-2-(1H-pyrazol-3-yl)-6,7,8,9-tetrahydro-1,3,7,9a-tetraazabenzo[cd]azulen-4-yl)morpholine]	6.00 to 7.00	7.00 to 8.00	–	–
CC1NC(=O)Cn2nc(-c3cc[nH]n3)c3nc(N4CCOC[C@H]4C)cc1c32 (stereo partly drawn) [Compound 56, 6-methyl-4-((R)-3-methylmorpholinyl)-2-(1H-pyrazol-3-yl)-6,7-dihydro-1,3,7,9a-tetraazabenzo[cd]azulen-8(9H)-one]	–	–	> 1000	7.00 to 8.00
CC1c2cc(N3CCOC[C@H]3C)nc3c(-c4cc[nH]n4)nn(c23)CCN1C1COC1 (stereo partly drawn) [Compound 57, (3R)-3-methyl-4-(6-methyl-7-(oxetan-3-yl)-2-(1H-pyrazol-3-yl)-6,7,8,9-tetrahydro-1,3,7,9a-tetraazabenzo[cd]azulen-4-yl)morpholine]	6.00 to 7.00	7.00 to 8.00	–	–
CC1=NCCn2nc(-c3cc[nH]n3)c3nc(N4CCOC[C@H]4C)cc1c32 [Compound 58, (R)-3-methyl-4-(6-methyl-2-(1H-pyrazol-3-yl)-8,9-dihydro-1,3,7,9a-tetraazabenzo[cd]azulen-4-yl)morpholine]	6.00 to 7.00	7.00 to 8.00	–	–
C[C@@H]1COCCN1c1cc2c3c(n1)c(-c1cc[nH]n1)nn3CCN2C [Compound 62, (R)-3-methyl-4-(5-methyl-1-(1H-pyrazol-3-yl)-4,5-dihydro-3H-2,2a,5,8-tetraazaacenaphthen-7-yl)morpholine]	< 6.00	5.60 to 6.00	–	–
CC(C)N1CCn2nc(-c3cc[nH]n3)c3nc(N4CCOC[C@H]4C)cc1c32 [Compound 63, (R)-4-(5-isopropyl-1-(1H-pyrazol-3-yl)-4,5-dihydro-3H-2,2a,5,8-tetraazaacenaphthen-7-yl)-3-methylmorpholine]	6.00 to 7.00	6.00 to 7.00	–	–
C[C@@H]1COCCN1c1cc2c3c(nn(-c4cc[nH]n4)c3n1)CCC(=O)N2C1(C)CC1 [Compound 75, (R)-6-(1-methylcyclopropyl)-4-(3-methylmorpholino)-2-(1H-pyrazol-3-yl)-2,6,8,9-tetrahydro-7H-1,2,3,6-tetraazabenzo[cd]azulene-7-one]	> 7.00	> 8.00	–	–
C[C@@H]1COCCN1c1cc2c3c(nn(-c4cc[nH]n4)c3n1)CCC(=O)N2CC1(C)CC1 [Compound 77, (R)-6-((1-methylcyclopropyl)methyl)-4-(3-methylmorpholino)-2-(1H-pyrazol-3-yl)-2,6,8,9-tetrahydro-7H-1,2,3,6-tetraazabenzo[cd]azulene-7-one]	> 7.00	> 8.00	–	–
CC(C)N1C(=O)CCc2nn(-c3cc[nH]n3)c3nc(N4CCOC[C@H]4C)cc1c23 [Compound 78, (R)-6-isopropyl-4-(3-methylmorpholino)-2-(1H-pyrazol-3-yl)-2,6,8,9-tetrahydro-7H-1,2,3,6-tetraazabenzo[cd]azulene-7-one]	–	> 8.00	< 100	–
C[C@@H]1COCCN1c1cc2c3c(nn(-c4cc[nH]n4)c3n1)CCC(=O)N2C1CC(F)(F)C1 [Compound 79, (R)-6-(3,3-difluorocyclobutyl)-4-(3-methylmorpholinyl)-2-(1H-pyrazol-3-yl)-2,6,8,9-tetrahydro-7H-1,2,3,6-tetraazabenzo[cd]azulene-7-one]	–	–	100 to 1000	> 8.00
CC(C)N1C(=O)CCn2nc(-c3cc[nH]n3)c3nc(N4CCOC[C@H]4C)cc1c32 [Compound 81, (R)-6-isopropyl-4-(3-methylmorpholinyl)-2-(1H-pyrazol-3-yl)-8,9-dihydro-1,3,6,9a-tetraazabenzo[cd]azulene-7(6H)-one]	–	–	< 100	> 8.00
C[C@@H]1COCCN1c1cc2c3c(n1)c(-c1cc[nH]n1)nn3CCC(=O)N2C1CC1 [Compound 82, (R)-6-cyclopropyl-4-(3-methylmorpholino)-2-(1H-pyrazol-3-yl)-8,9-dihydro-1,3,6,9a-tetraazabenzo[cd]azulene-7(6H)-one]	> 7.00	> 8.00	–	–
C[C@@H]1COCCN1c1cc2c3c(n1)c(-c1cc[nH]n1)nn3CCC(=O)N2CC1CC1 [Compound 83, (R)-6-(cyclopropylmethyl)-4-(3-methylmorpholino)-2-(1H-pyrazol-3-yl)-8,9-dihydro-1,3,6,9a-tetraazabenzo[cd]azulene-7(6H)-one]	> 7.00	7.00 to 8.00	–	–
CC(C)CN1C(=O)CCn2nc(-c3cc[nH]n3)c3nc(N4CCOC[C@H]4C)cc1c32 [Compound 84, (R)-6-isobutyl-4-(3-methylmorpholino)-2-(1H-pyrazol-3-yl)-8,9-dihydro-1,3,6,9a-tetraazabenzo[cd]azulene-7(6H)-one]	> 7.00	> 8.00	–	–
C[C@@H]1COCCN1c1cc2c3c(n1)c(-c1cc[nH]n1)nn3CCC(=O)N2CCC(F)(F)F [Compound 85, (R)-4-(3-methylmorpholino)-2-(1H-pyrazol-3-yl)-6-(3,3,3-trifluoropropyl)-8,9-dihydro-1,3,6,9a-tetraazabenzo[cd]azulene-7(6H)-one]	> 7.00	7.00 to 8.00	–	–
C[C@@H]1COCCN1c1cc2c3c(n1)c(-c1cc[nH]n1)nn3CCC(=O)N2C [Compound 86, (R)-6-methyl-4-(3-methylmorpholino)-2-(1H-pyrazol-3-yl)-8,9-dihydro-1,3,6,9a-tetraazabenzo[cd]azulene-7(6H)-one]	6.00 to 7.00	6.00 to 7.00	–	–
C[C@@H]1COCCN1c1cc2c3c(n1)c(-c1cc[nH]n1)nn3CCC(=O)N2CC1(C)CC1 [Compound 87, (R)-6-((1-methylcyclopropyl)methyl)-4-(3-methylmorpholinyl)-2-(1H-pyrazol-3-yl)-8,9-dihydro-1,3,6,9a-tetraazabenzo[cd]azulene-7(6H)-one]	–	–	< 100	7.00 to 8.00
C[C@@H]1COCCN1c1cc2c3c(n1)c(-c1cc[nH]n1)nn3CCC(=O)N2C1(C)CC1 [Compound 88, (R)-6-(1-methylcyclopropyl)-4-(3-methylmorpholinyl)-2-(1H-pyrazol-3-yl)-8,9-dihydro-1,3,6,9a-tetraazabenzo[cd]azulene-7(6H)-one]	–	–	< 100	> 8.00
